What was measured:
[1] = target: T1, human recombinant A2B adenosine receptor (Homo sapiens, UniProt P29275); test: cAMP assay in CHO hA2B; type: cell-based; settings: percentage given after the > bound; meaning not defined in the patent
T1 sequence (P29275 1-332): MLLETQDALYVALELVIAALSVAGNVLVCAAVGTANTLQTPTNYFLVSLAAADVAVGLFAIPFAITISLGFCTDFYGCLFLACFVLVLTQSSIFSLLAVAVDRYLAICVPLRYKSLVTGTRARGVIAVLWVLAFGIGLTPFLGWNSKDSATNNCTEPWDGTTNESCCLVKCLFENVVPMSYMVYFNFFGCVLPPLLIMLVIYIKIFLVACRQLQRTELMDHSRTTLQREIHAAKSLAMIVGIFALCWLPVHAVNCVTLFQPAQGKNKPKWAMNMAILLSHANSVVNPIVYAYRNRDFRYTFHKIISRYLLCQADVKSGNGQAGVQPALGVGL

[2] = target: T2, human recombinant A3 adenosine receptors (Homo sapiens, UniProt P0DMS8); test: [3H]-MRE 3008F20 binding to hA3 receptors expressed in CHO cells; settings: CHO cell membranes, 1 nM [3H]-MRE 3008F20; geometric mean, confidence limits in the line below; read-out: [3H] MRE3008F20 binding to hA3 receptors expressed in CHO cells Ki
T2 construct: expressed in transfected cells; host or cells: CHO cells (membranes)
T2 sequence (P0DMS8 1-318): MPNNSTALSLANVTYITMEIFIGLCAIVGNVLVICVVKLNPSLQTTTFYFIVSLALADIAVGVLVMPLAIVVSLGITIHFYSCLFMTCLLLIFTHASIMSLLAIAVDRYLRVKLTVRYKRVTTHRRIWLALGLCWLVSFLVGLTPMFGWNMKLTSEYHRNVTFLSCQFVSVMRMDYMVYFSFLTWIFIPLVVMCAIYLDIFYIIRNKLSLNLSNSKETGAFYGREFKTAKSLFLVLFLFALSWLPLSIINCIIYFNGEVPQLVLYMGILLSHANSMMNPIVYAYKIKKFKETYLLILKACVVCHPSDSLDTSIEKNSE
Protocol: (§1) For membrane preparation the culture medium was removed and the cells were washed with PBS and scraped off T75 flasks in ice-cold hypotonic buffer (5 mM Tris HCl, 2 mM EDTA, pH 7.4).
(§2) The cell suspension was homogenized with Polytron and the homogenate was spun for 10 min at 1,000×g. The supernatant was then centrifuged for 30 min at 100,000×g. […] Then the suspension was frozen at −80° C.
Non-specific binding was defined as binding in the presence of 1 μM MRE 3008F20 and was about 30% of total binding.
(§3) Ki=IC50/(1+[C*]/KD*), where [C*] is the concentration of the radioligand and KD* its dissociation constant.

[3] = target: T3, human recombinant A1 adenosine receptor (Homo sapiens, UniProt P30542); test: [3H]-DPCPX binding to human A1 adenosine receptor expressed in CHO cells; settings: percentage given after the > bound; meaning not defined in the patent
T3 sequence (P30542 1-326): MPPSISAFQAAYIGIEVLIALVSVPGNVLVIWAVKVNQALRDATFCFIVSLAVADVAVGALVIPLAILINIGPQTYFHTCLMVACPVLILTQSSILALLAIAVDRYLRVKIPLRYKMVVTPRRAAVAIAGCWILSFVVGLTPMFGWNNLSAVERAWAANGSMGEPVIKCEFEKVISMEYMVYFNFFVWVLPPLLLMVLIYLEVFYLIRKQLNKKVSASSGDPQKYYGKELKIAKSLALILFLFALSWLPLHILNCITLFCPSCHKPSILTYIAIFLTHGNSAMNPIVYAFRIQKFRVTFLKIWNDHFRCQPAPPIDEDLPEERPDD
Protocol: as §1, §2, §3

[4] = target: human recombinant A2A adenosine receptors (Homo sapiens, UniProt P29274); test: Radioligand binding to hA2A receptors expressed in CHO cells; settings: percentage given after the > bound; meaning not defined in the patent
Chain of human recombinant A2A adenosine receptors (P29274 whole entry): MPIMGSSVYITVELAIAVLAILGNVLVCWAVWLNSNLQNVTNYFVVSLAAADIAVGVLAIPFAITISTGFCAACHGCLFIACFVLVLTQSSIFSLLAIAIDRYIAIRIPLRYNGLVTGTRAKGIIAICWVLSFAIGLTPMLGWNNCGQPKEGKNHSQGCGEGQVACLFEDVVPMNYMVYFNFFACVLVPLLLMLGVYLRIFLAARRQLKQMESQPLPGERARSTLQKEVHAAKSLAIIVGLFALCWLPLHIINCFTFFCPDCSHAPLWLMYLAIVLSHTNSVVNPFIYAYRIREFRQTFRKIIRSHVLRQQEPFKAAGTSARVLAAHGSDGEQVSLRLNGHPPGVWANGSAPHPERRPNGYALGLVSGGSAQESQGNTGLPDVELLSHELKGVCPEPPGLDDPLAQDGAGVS
Protocol: as §1, §2, §3

Row | Compound | cAMP assay in CHO hA22B, percentage in parentheses [1] [%] | Ki [2] [µM] | melting point [°C] | [3H] DPCPX binding to hA1, percentage in parentheses [3] [%] | [3H] ZM 241385 binding to hA2A receptors, percentage in parentheses [4] [%]
1 | CCCn1c(=O)c2c(nc3[nH]c(CC)c(C)n32)n(Cc2ccccc2)c1=O [Compound 26, 1-Benzyl-7-ethyl-6-methyl-3-propyl-1H-imidazo[1,2-f]purine-2,4(3H,8H)-dione] | 73 | 0.06 | 230 | 80 | 97
2 | CCCn1c(=O)c2c(nc3[nH]c(C4CCCCC4)cn32)n(Cc2ccccc2)c1=O [Compound 24, 1-Benzyl-7-cyclohexyl-3-propyl-1H-imidazo[1,2-f]purine-2,4(3H,8H)-dione] | 71 | 0.555 | 130 to 132 | 72 | 99
